The target of this test is human GPR40 receptor (Homo sapiens, UniProt O14842). In words: IP1 accumulation measurements using the IPOne assay system. Format: cell-based. The conditions noted are these: IP1 accumulation (IPOne HTRF), 1 hour stimulation; 1321N1 cells stably expressing human GPR40; read-out: EC50 values on GPR40 determined as described in (B). Here is the method:
(B) IP1 accumulation measurements using the IPOne assay system—1321N1 cells stably expressing human GPR40 receptor (Euroscreen, Belgium) were seeded 24 h before the assay in black clear-bottom collagen-coated 384-well plates in culture medium containing 10% FCS, 1% Na-Pyruvate and 400 μg/mL G418. IP1 is assayed according to the Manufacturer's description (Cisbio Bioassays, France). In brief, the assay is started by substitution of the culture medium by stimulation buffer (Hepes 10 mM, CaCl2 1 mM, MgCl2 0.5 mM, KCl 4.2 mM, NaCl 146 mM and glucose 5.5 mM, pH 7.4) without LiCl. Cells are stimulated for 1 hour at 37°, 10% CO2 by addition of the compounds that were diluted in stimulation buffer containing LiCl yielding a final LiCl concentration of 50 mM. Assays are stopped by adding HTRF-conjugates (IP1-d2 and Anti-IP1 cryptate Tb) and lysis buffer, provided by the manufacturer. After an incubation time of 1 hour at room temperature plates are measured using an EnVision™, Perkin Elmer.

The text below walks through data of patent publication US20120302566A1, “INDANYLOXYDIHYDROBENZOFURANYLACETIC ACIDS” (BOEHRINGER INGELHEIM INTERNATIONAL GMBH, priority 2010, published 2012).

human GPR40 receptor, sequence (O14842 whole entry): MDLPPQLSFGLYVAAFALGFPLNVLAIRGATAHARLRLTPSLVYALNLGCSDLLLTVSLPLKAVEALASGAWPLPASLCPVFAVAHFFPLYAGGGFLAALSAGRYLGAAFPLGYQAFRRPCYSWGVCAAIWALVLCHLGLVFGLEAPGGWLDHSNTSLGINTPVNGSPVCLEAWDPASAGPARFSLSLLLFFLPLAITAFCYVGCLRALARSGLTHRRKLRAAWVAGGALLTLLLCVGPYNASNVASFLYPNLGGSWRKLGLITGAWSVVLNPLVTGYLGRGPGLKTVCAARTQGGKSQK

On to `Cc1ccccc1-c1cccc2c1CC[C@H]2Oc1ccc2c(c1)OC[C@H]2CC(=O)O` [Example 62, {(S)-6-[(R)-4-o-Tolyl-indan-1-yloxy]-2,3-dihydro-benzofuran-3-yl}-acetic acid], for which the EC50 came to 0.052 µM.
The same measure for `COc1cc(C)c(-c2cccc3c2CC[C@H]3Oc2ccc3c(c2)OC[C@H]3CC(=O)O)c(C)n1` [Example 64, {(S)-6-[(R)-4-(6-Methoxy-2,4-dimethyl-pyridin-3-yl)-indan-1-yloxy]-2,3-dihydro-benzofuran-3-yl}-acetic acid]: 0.213 µM; for `O=C(O)C[C@@H]1COc2cc(O[C@@H]3CCc4c3cccc4-n3ccccc3=O)ccc21` [Example 51, {(S)-6-[(R)-4-(2-Oxo-2H-pyridin-1-yl)-indan-1-yloxy]-2,3-dihydro-benzofuran-3-yl}-acetic acid]: 9.67 µM; for `Cc1cc(=O)n(C)c(C)c1-c1cccc2c1CC[C@H]2Oc1ccc2c(c1)OC[C@H]2CC(=O)O` [Example 63, {(S)-6-[(R)-4-(1,2,4-Trimethyl-6-oxo-1,6-dihydro-pyridin-3-yl)-indan-1-yloxy]-2,3-dihydro-benzofuran-3-yl}-acetic acid]: 3.15 µM.
The figure for `O=C(O)C[C@@H]1COc2cc(O[C@@H]3CCc4c(C5=CCCCC56CCOCC6)cccc43)ccc21` [Example 56, {(S)-6-[(R)-4-(3-Oxa-spiro[5.5]undec-7-en-7-yl)-indan-1-yloxy]-2,3-dihydro-benzofuran-3-yl}-acetic acid] is 0.124 µM; for `O=C(O)C[C@@H]1COc2cc(O[C@@H]3CCc4c(C5CC5)cccc43)ccc21` [Example 31, {(S)-6-[(R)-4-Cyclopropyl-indan-1-yloxy]-2,3-dihydro-benzofuran-3-yl}-acetic acid] it is 0.168 µM; for `CC1OC(c2cccc3c2CC[C@H]3Oc2ccc3c(c2)OC[C@H]3CC(=O)O)C1(C)C` (single isomer, unassigned) [Example 42] it is 0.131 µM.
The figure for `COc1ccc(C(F)(F)F)c(-c2cccc3c2CC[C@H]3Oc2ccc3c(c2)OC[C@H]3CC(=O)O)n1` [Example 91, {(S)-6-[(R)-4-(6-Methoxy-3-trifluoromethyl-pyridin-2-yl)-indan-1-yloxy]-2,3-dihydro-benzofuran-3-yl}-acetic acid] is 0.069 µM; for `Cc1cc2c(c(C(F)(F)F)c1)CC[C@H]2Oc1ccc2c(c1)OC[C@H]2CC(=O)O` [Example 26, {(S)-6-[(R)-6-Methyl-4-trifluoromethyl-indan-1-yloxy]-2,3-dihydro-benzofuran-3-yl}-acetic acid] it is 0.019 µM; for `CC(C)(C)c1ccc2c(c1)CC[C@H]2Oc1ccc2c(c1)OC[C@H]2CC(=O)O` [Example 95, {(S)-6-[(R)-5-tert-Butyl-indan-1-yloxy]-2,3-dihydro-benzofuran-3-yl}-acetic acid] it is 0.1 µM.
For `CC(C)(C#N)c1cccc2c1CC[C@H]2Oc1ccc2c(c1)OC[C@H]2CC(=O)O` [Example 97, {(S)-6-[(R)-4-(Cyano-dimethyl-methyl)-indan-1-yloxy]-2,3-dihydro-benzofuran-3-yl}-acetic acid], the EC50 came to 0.171 µM.
The figure for `Cc1noc(C)c1-c1cccc2c1CC[C@H]2Oc1ccc2c(c1)OC[C@H]2CC(=O)O` [Example 74, {(S)-6-[(R)-4-(3,5-Dimethyl-isoxazol-4-yl)-indan-1-yloxy]-2,3-dihydro-benzofuran-3-yl}-acetic acid] is 0.327 µM; for `O=C(O)C[C@@H]1COc2cc(O[C@@H]3CCc4c(OC(F)(F)F)cccc43)ccc21` [Example 25, {(S)-6-[(R)-4-Trifluoromethoxy-indan-1-yloxy]-2,3-dihydro-benzofuran-3-yl}-acetic acid] it is 0.018 µM; for `COc1cc(C)c(-c2cccc3c2CC[C@H]3Oc2ccc3c(c2)OC[C@H]3CC(=O)O)c(C)c1` [Example 59, {(S)-6-[(R)-4-(4-Methoxy-2,6-dimethyl-phenyl)-indan-1-yloxy]-2,3-dihydro-benzofuran-3-yl}-acetic acid] it is 0.325 µM.
The figure for `N#Cc1cccnc1-c1cccc2c1CC[C@H]2Oc1ccc2c(c1)OC[C@H]2CC(=O)O` [Example 46, {(S)-6-[(R)-4-(3-Cyano-pyridin-2-yl)-indan-1-yloxy]-2,3-dihydro-benzofuran-3-yl}-acetic acid] is 0.982 µM; for `CC1(C)CCC=C1c1cccc2c1CC[C@H]2Oc1ccc2c(c1)OC[C@H]2CC(=O)O` [Example 40, {(S)-6-[(R)-4-(5,5-Dimethyl-cyclopent-1-enyl)-indan-1-yloxy]-2,3-dihydro-benzofuran-3-yl}-acetic acid] it is 0.013 µM; for `O=C(O)C[C@@H]1COc2cc(O[C@@H]3CCc4c3ccc(F)c4F)ccc21` [Example 37, {(S)-6-[(R)-4,5-Difluoro-indan-1-yloxy]-2,3-dihydro-benzofuran-3-yl}-acetic acid] it is 0.078 µM.
Turning to `Cc1cn(C)c(=O)c(C)c1-c1cccc2c1CC[C@H]2Oc1ccc2c(c1)OC[C@H]2CC(=O)O` [Example 61, {(S)-6-[(R)-4-(1,3,5-Trimethyl-2-oxo-1,2-dihydro-pyridin-4-yl)-indan-1-yloxy]-2,3-dihydro-benzofuran-3-yl}-acetic acid], the concentration giving a half-maximal response (EC50) was 0.155 µM.
The same measure for `CO[C@@H](c1cccc2c1CC[C@H]2Oc1ccc2c(c1)OC[C@H]2CC(=O)O)C(F)(F)F` (single isomer, unassigned) [Example 39, {(S)-6-[(R)-4-((S)*-2,2,2-Trifluoro-1-methoxy-ethyl)-indan-1-yloxy]-2,3-dihydro-benzofuran-3-yl}-acetic acid]: 0.262 µM; for `C=CCCC(C)(O)c1cccc2c1CC[C@H]2Oc1ccc2c(c1)OC[C@H]2CC(=O)O` (stereo partly drawn) [Example 82, {(S)-6-[(R)-4-(1-Hydroxy-1-methyl-pent-4-enyl)-indan-1-yloxy]-2,3-dihydro-benzofuran-3-yl}-acetic acid]: 3.35 µM; for `O=C(O)C[C@@H]1COc2cc(O[C@@H]3CCc4c(-c5ccccc5C(F)(F)F)cccc43)ccc21` [Example 69, {(S)-6-[(R)-4-(2-Trifluoromethyl-phenyl)-indan-1-yloxy]-2,3-dihydro-benzofuran-3-yl}-acetic acid]: 0.088 µM.
The same measure for `CC(O)(CC1CCOCC1)c1cccc2c1CC[C@H]2Oc1ccc2c(c1)OC[C@H]2CC(=O)O` (stereo partly drawn) [Example 83, ((S)-6-{(R)-4-[1-Hydroxy-1-methyl-2-(tetrahydro-pyran-4-yl)-ethyl]-indan-1-yloxy}-2,3-dihydro-benzofuran-3-yl)-acetic acid]: 0.392 µM.
The same measure for `Cc1ccnc(C)c1-c1cccc2c1CC[C@H]2Oc1ccc2c(c1)OC[C@H]2CC(=O)O` [Example 93, {(S)-6-[(R)-4-(2,4-Dimethyl-pyridin-3-yl)-indan-1-yloxy]-2,3-dihydro-benzofuran-3-yl}-acetic acid]: 0.061 µM; for `Cc1nn(C)c(C)c1-c1cccc2c1CC[C@H]2Oc1ccc2c(c1)OC[C@H]2CC(=O)O` [Example 49, {(S)-6-[(R)-4-(1,3,5-Trimethyl-1H-pyrazol-4-yl)-indan-1-yloxy]-2,3-dihydro-benzofuran-3-yl}-acetic acid]: 1.91 µM.
As for `CO[C@H](c1cccc2c1CC[C@H]2Oc1ccc2c(c1)OC[C@H]2CC(=O)O)C(C)(C)C` (single isomer, unassigned) [Example 29, {(S)-6-[(R)-4-((S)*-1-Methoxy-2,2-dimethyl-propyl)-indan-1-yloxy]-2,3-dihydro-benzofuran-3-yl}-acetic acid], the EC50 is 0.014 µM.
The same measure for `CC1(C)CCCO[C@@H]1c1cccc2c1CC[C@H]2Oc1ccc2c(c1)OC[C@H]2CC(=O)O` (single isomer, unassigned) [Example 66]: 0.08 µM; for `COC(C)(C)C(F)(F)c1cccc2c1CC[C@H]2Oc1ccc2c(c1)OC[C@H]2CC(=O)O` [Example 84, {(S)-6-[(R)-4-(1,1-Difluoro-2-methoxy-2-methyl-propyl)-indan-1-yloxy]-2,3-dihydro-benzofuran-3-yl}-acetic acid]: 0.117 µM.
The figure for `O=C(O)C[C@@H]1COc2cc(O[C@@H]3CCc4c3cccc4C(F)(F)C(F)(F)F)ccc21` [Example 101, {(S)-6-[(R)-4-Pentafluoroethyl-indan-1-yloxy]-2,3-dihydro-benzofuran-3-yl}-acetic acid] is 0.025 µM.
As for `Cc1nccnc1-c1cccc2c1CC[C@H]2Oc1ccc2c(c1)OC[C@H]2CC(=O)O` [Example 99, {(S)-6-[(R)-4-(3-Methyl-pyrazin-2-yl)-indan-1-yloxy]-2,3-dihydro-benzofuran-3-yl}-acetic acid], the EC50 was determined as 3.27 µM.
The same measure for `COC(C)(c1cccc2c1CC[C@H]2Oc1ccc2c(c1)OC[C@H]2CC(=O)O)C(C)(C)C` (stereo partly drawn) [Example 78, {(S)-6-[(R)-4-(1-Methoxy-1,2,2-trimethyl-propyl)-indan-1-yloxy]-2,3-dihydro-benzofuran-3-yl}-acetic acid]: 0.076 µM; for `Cc1cc2c(cc1O[C@@H]1CCc3c1cccc3C(F)(F)F)OCC2CC(=O)O` (mixture of isomers) [Example 107, {5-Methyl-6-[(R)-4-trifluoromethyl-indan-1-yloxy]-2,3-dihydro-benzofuran-3-yl}-acetic acid]: 6.05 µM.
In the case of `Cc1c(O[C@@H]2CCc3c2cccc3C(F)(F)F)ccc2c1OCC2CC(=O)O` (mixture of isomers) [Example 105, {7-Methyl-6-[(R)-4-trifluoromethyl-indan-1-yloxy]-2,3-dihydro-benzofuran-3-yl}-acetic acid], the EC50 worked out at 4.25 µM.
